Molecules are shown by their SMILES.

Here are results for 4 compounds from patent publication EP2002836B1, “Cyclocondensed azaindoles active as kinase inhibitors” (Nerviano Medical Sciences S.r.l., priority 2007, dated 2008).

The target in one assay is AKT1 (Homo sapiens, UniProt P31749). Description: Biochemical assay for inhibitors of AKT1 kinase activity (33P trans-phosphorylation, Dowex resin). More on the design: made in house. The note with it: 5 nM enzyme, 132 microM ATP, 30 microM peptide substrate; read-out: AKT1 IC50 (µM) Biochem assay. As to the method: (§1) The N-terminal GST fusion proteins used for the assays were prepared according to the methods described in Kumar, C. C. Biochem. Biophys. ACTA 2001, 1526, 257-268, and in Alessi, D. R.. Biochem. J. 1998 331, 299-308.
The inhibitory activity of putative kinase inhibitors and the potency of selected compounds were determined using a trans-phosphorylation assay.
A specific substrate was incubated with the kinase in appropriate buffer conditions in the presence of ATP traced with ^33P-γ-ATP (gamma phosphate-labeled, Redivue™ Code Number AH9968, 1000-3000Ci/mmole, Amersham Biosciences Piscataway, NJ, USA), optimal cofactors and test compound.
At the end of the phosphorylation reaction, more than 98% cold and radioactive ATP were captured by an excess of Dowex ion exchange resin. The resin was allowed to settle to the bottom of reaction wells by gravity. Supernatant, containing substrate peptide, was subsequently withdrawn and transferred into a counting plate, and radioactivity (corresponding to phosphate incorporated into peptide) was evaluated by β-counting.
Kinase buffer was composed of 50 mM TRIS pH 7.5 containing10 mM MgCl2, 1 mM DTT, 3 microM Na3VO4, and 0.2 mg/mL BSA. 3X KB is buffer of the same composition and pH as KB, but with three times the concentration of each component. iii.Assay conditions (final concentrations) for AKT1.
The kinase assay was run with a final enzyme concentration of 5 nM, in the presence of 132 microM ATP, 0.88 nM ^33P-γ-ATP and 30 microM substrate, a carboxy-terminally biotinylated peptide of the following sequence: ARKRERTYSFGHHA-biotin. The peptide was obtained in batches of >95% peptide purity from PRIMM labs Inc. (Boston MA, USA).
The "test" mixture of 15 microL consisting of: • 1) 5 µl/well of 3x Enzyme mix (done in Kinase Buffer 3X), • 2) 5 µl/well of 3x substrate and ATP mix (done in ddH2O), together with ^33P-γ-ATP, • 3) 5 µl/well of 3x test compounds (diluted into ddH2O - 3% DMSO).
For % inhibition studies, dilution plates at 1 mM, 10 microM and 100 microM were prepared in 100% DMSO, then diluted to 3X final desired concentration (30, 3 and 0.3 microM) in ddH2O, 3% DMSO. A Multimek 96 (Beckman Coulter, Inc. 4300 N. Harbor Boulevard, P.O. Box 3100 Fullerton, CA 92834-3100 USA) was used for compound pipetting into test plates.
For IC50 determination, starting solutions of 30 microM compound in 3% DMSO were derived from 1 mM/100% DMSO stock solutions. These 30 microM starting solutions were used for generation of a further 9 serial 1/3 dilutions in ddH20, 3% DMSO, so as to generate a 10-point dilution curve at 3X the final assay concentration. Serial dilution was conducted in 96-well plates using a Biomek 2000 (Beckman Coulter) system. Dilution curves of 7 compounds/plate were prepared, and each plate also included a 10-point dilution curve of Staurosporine, as well as several negative and positive control wells.
384-well plates, V bottom (test plates) are prepared with 5 µl of the compound dilution (3X) and then placed onto a PlateTrak 12 robotized station (Perkin Elmer; the robot has one 384-tips pipetting head for starting the assay plus one 96-tips head for dispensing the resin) together with one reservoir for the Enzyme mix (3X) and one for the ATP mix (3X).
At the start of the run, the robot aspirates 5 µl of ATP mix, makes an air gap inside the tips (3 µl) and aspirates 5 µl of AKT mix. The following dispensation into the plates allows the kinase reaction to start upon 3 cycles of mixing, done by the robot itself.
The robot incubates the plates for 60 minutes at room temperature, and then stops the reaction by pipetting 70 µl of dowex resin suspension into the reaction mix. Three cycles of mixing are done immediately after the addition of the resin.
Another mixing cycle is performed after all the plates are stopped, this time using normal tips: the plates are then allowed to rest for about one hour in order to maximize ATP capture. […]

For the next assay, the target named is T1, AKT2 (Homo sapiens, UniProt P31751).
T1 construct: made in house
Description: Biochemical assay for inhibitors of AKT2 kinase activity (33P trans-phosphorylation, Dowex resin). As to conditions: 10 nM enzyme, 396 microM ATP, 8.5 microM peptide substrate; read-out: AKT2 IC50 (µM) Biochem assay. As to the method: as §1
The in vitro kinase inhibition assay was conducted in the same way as described for AKT1. The kinase assay was run with a final enzyme concentration of 10 nM, in the presence of 396 microM ATP, 0.88 nM ^33P-γ-ATP and 8.5 microM substrate, a carboxy-terminally biotinylated peptide of the following sequence: ARKRERTYSFGHHA-biotin. The peptide was obtained in batches of >95% peptide purity from PRIMM labs Inc. (Boston MA, USA).

T1 sequence (P31751 whole entry, species assumed): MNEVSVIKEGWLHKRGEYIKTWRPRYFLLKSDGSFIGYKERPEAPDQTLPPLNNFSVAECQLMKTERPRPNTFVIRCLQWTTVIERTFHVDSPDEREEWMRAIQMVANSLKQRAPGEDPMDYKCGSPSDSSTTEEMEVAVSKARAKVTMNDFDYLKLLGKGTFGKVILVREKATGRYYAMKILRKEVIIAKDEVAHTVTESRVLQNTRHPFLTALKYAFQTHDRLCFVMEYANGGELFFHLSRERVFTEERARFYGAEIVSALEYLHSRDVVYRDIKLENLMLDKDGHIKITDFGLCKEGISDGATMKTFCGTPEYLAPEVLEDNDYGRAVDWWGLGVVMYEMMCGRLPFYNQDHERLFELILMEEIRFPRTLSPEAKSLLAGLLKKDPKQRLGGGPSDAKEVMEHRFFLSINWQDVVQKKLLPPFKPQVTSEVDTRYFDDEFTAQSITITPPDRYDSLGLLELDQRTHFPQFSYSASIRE
AKT1, sequence (P31749 whole entry, the tested form may be a part): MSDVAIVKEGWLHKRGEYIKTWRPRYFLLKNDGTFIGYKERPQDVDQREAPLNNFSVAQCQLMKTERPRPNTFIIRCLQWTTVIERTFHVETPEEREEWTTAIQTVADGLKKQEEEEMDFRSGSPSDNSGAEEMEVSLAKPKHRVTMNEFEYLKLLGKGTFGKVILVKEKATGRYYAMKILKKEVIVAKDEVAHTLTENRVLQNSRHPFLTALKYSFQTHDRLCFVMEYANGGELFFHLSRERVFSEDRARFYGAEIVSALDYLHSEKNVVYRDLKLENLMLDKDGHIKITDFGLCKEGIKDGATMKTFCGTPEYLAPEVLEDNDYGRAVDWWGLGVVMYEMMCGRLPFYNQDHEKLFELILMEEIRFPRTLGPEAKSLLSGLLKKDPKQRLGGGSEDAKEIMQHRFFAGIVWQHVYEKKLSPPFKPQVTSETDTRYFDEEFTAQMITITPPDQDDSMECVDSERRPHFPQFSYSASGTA

In the case of `NC[C@H](Cc1ccccc1)NC(=O)C1=Cc2c[nH]c3nccc(c23)CC1` [Cpd. 1, N-[(1S)-2-amino-1-benzylethyl]-6,7-dihydro-2H-2,3-diazabenzo[cd]azulene-8-carboxamide], the IC50 (usually the concentration at which inhibition is half-maximal) on AKT1 was 0.05 µM; on AKT2, 0.266 µM.

On to `O=C(N[C@H](CN1CCCC1)c1ccccc1)C1=Cc2c[nH]c3nccc(c23)CC1` [Cpd. 6, N-[(1S)-1-phenyl-2-pyrrolidin-1-ylethyl]-6,7-dihydro-2H-2,3-diazabenzo[cd]azulene-8-carboxamide], for which the IC50 at AKT1 amounted to 0.121 µM; on AKT2, 0.362 µM.

Regarding `CC(=O)N1CC(C(=O)N[C@H](CN)Cc2ccccc2)=Cc2c[nH]c3nccc1c23` [Cpd. 3, 6-acetyl-N-[(1S)-2-amino-1-benzylethyl]-6,7-dihydro-2H-2,3,6-triazabenzo[cd]azulene-8-carboxamide], the half-inhibitory concentration (IC50) on AKT1 came out at 0.184 µM; on AKT2 it was 1.99 µM.

For the compound `NC[C@H](Cc1ccccc1)NC(=O)C1=Cc2c[nH]c3nccc(c23)NC1` [compound 2, N-[(1S)-2-amino-1-benzylethyl]-6,7-dihydro-2H-2,3,6-triazabenzo[cd]azulene-8-carboxamide], the IC50 is 0.017 µM at AKT1 and 0.155 µM on AKT2.
